Experimental data: ChEMBL document CHEMBL1687769, “High cefepime plasma concentrations and neurological toxicity in febrile neutropenic patients with mild impairment of renal function” (Antimicrob Agents Chemother, 2010)

Tests used:
[1] = Cmin in febrile neutropenic patient with GFR of <40 ml/min at 2 g administered as 30 mins infusion every 8 hrs measured after 4 days by HPLC analysis; type: ADME, organism-based; conditions: human, in vivo, iv, read-out: Cmin
[2] = Cmin in febrile neutropenic patient with neurological disorder at 2 g administered as 30 mins infusion every 8 hrs measured after 4 days by HPLC analysis; type: ADME, organism-based; conditions: human, in vivo, iv, read-out: Cmin
Homo sapiens [3] = test: Neurotoxicity in febrile neutropenic patient assessed as myoclonia at 2 g administered as 30 mins infusion every 8 hrs; type: toxicity, organism-based; conditions: in vivo, iv
Homo sapiens [4] = test: Neurotoxicity in febrile neutropenic patient assessed as confusion at 2 g administered as 30 mins infusion every 8 hrs; type: toxicity, organism-based; conditions: in vivo, iv
Homo sapiens [5] = test: Neurotoxicity in febrile neutropenic patient assessed as hallucinations at 2 g administered as 30 mins infusion every 8 hrs; type: toxicity, organism-based; conditions: in vivo, iv

SMILES: CO/N=C(\C(=O)N[C@@H]1C(=O)N2C(C(=O)[O-])=C(C[N+]3(C)CCCC3)CS[C@H]12)c1csc(N)n1 [CEFEPIME]
- concentration at 4 days [1]: 11400 ng/mL
- concentration at 4 days [2]: 28000 ng/mL
- Activity (Homo sapiens [3]): Toxic
- Activity (Homo sapiens [4]): Toxic
- Activity (Homo sapiens [5]): Toxic
